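Cells were grown in 96-well plates and exposed to each compound for 48 hours at five concentrations; endpoints were interpolated linearly between bracketing concentrations, or set to the highest concentration if not reached. GI50 marks 50% less growth.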 Active and inactive are the calls of the source. Rule as the data show it: active = GI50 up to about 1.1 µM and inactive = higher.

What all share (assay): NCI tumour cell line growth inhibition, 48 h
Test [1] relates to A549.
In test [2] the test system is NCI-H226.
Test [3] concerns MDA-MB-231.
Test [4] concerns Malme-3M.
The test system of test [5] is OVCAR-5.
Test [6] concerns MCF7.
Test [7] relates to HL-60.
The test system of test [8] is SK-MEL-5.
In test [9] the test system is LOX IMVI.
Test [10] concerns NCI-H460.
In test [11] the test system is NCI/ADR-RES.
Test [12] concerns SK-MEL-28.
The subject of test [13] is MOLT-4.
Test [14] has as its system MDA-MB-435.
The test system of test [15] is TK-10.
For test [16], the system named is UO-31.
In test [17] the test system is CCRF-CEM.
In test [18] the test system is HT-29.
Test [19] concerns SNB-19.
Test [20] has as its system HCC 2998.

On to `Brc1sc(Br)c2c1[C@H](Br)C[C@@H]2Br`, for which the GI50 in test [1] is 30 µM (inactive); in test [2], 23.1 µM (inactive); in [3], 31.1 µM (inactive); in test [4], 23.9 µM (inactive); in [5] it was > 100 µM (inactive); in [6] it was 29.6 µM (inactive). For the same compound, the GI50 in test [7] is 30.7 µM (inactive); in test [8], 57.1 µM (inactive); in test [9], 17.4 µM (inactive); in test [10], 27.5 µM (inactive); in [11], 23 µM (inactive); in [12], 28 µM (inactive). For the same compound, the GI50 was 8.97 µM (inactive) in test [13]; 35.5 µM (inactive) in test [14]; > 100 µM (inactive) in test [15]; 19.6 µM (inactive) in test [16]; 31.1 µM (inactive) in test [17]; > 100 µM (inactive) in test [18].

For `Cc1oc(N)c(S(=O)(=O)c2cc3ccccc3[n+]([O-])c2N)c1C`, the GI50 in [1], in test [2], in test [3], in test [19], in test [4] and in test [5] was > 100 µM (inactive) throughout. Besides, the GI50 in [6], in test [20], in test [8], in [9], in test [10] and in test [11] was > 100 µM (inactive) in each case. In addition, the GI50 in [12], in test [13], in test [14], in test [15], in [16] and in test [18] was > 100 µM (inactive) each time.

Turning to `Cc1ccc(C(=O)N/N=C(\N=N\c2cccc([N+](=O)[O-])c2)c2ccc(N(CCC#N)CCC#N)cc2C)cc1`, the GI50 was 31.9 µM (inactive) in test [1]; 30.5 µM (inactive) in test [3]; 53.7 µM (inactive) in test [19]; 4.12 µM (inactive) in test [4]; 59.4 µM (inactive) in test [5]; 13.2 µM (inactive) in [6]. For the same compound, the GI50 is 30.9 µM (inactive) in [20]; 12.9 µM (inactive) in test [7]; 13.6 µM (inactive) in test [8]; 24.5 µM (inactive) in test [9]; 29 µM (inactive) in [10]; 34.8 µM (inactive) in [11]. Besides, the GI50 in [12] was > 46.8 µM (inactive); in test [13] it was 24 µM (inactive); in test [14], 18.1 µM (inactive); in test [15], 45.1 µM (inactive); in test [16], 39.5 µM (inactive); in test [17], 24.8 µM (inactive). Moreover, the GI50 in test [18] is 29.2 µM (inactive).

In the case of `Cc1c2c(n(CCc3ccccc3)c1C)N(C)N=C(C#N)S2(=O)=O`, the GI50 in [1], in [2], in [3], in [19], in test [5] and in [6] was > 100 µM (inactive) in each case. Moreover, the GI50 in test [20], in [8], in test [10], in test [11], in test [12] and in test [13] was > 100 µM (inactive) each time. For the same compound, the GI50 in [14], in test [15], in test [16] and in test [18] was > 100 µM (inactive) each time.

For `Cn1c(=O)c2c(nc(N/N=C3/SCC(=O)N3Cc3ccccc3)n2C)n(C)c1=O`, the GI50 in test [1] was 89.5 µM (inactive); in test [2], > 100 µM (inactive); in [3], 60.7 µM (inactive); in test [19], > 100 µM (inactive); in [4], > 100 µM (inactive); in test [5], > 100 µM (inactive). For the same compound, the GI50 in [6] is 81.7 µM (inactive); in [20] it was > 100 µM (inactive); in test [8] it was 34 µM (inactive); in [10] it was 38 µM (inactive); in [11], > 100 µM (inactive); in test [12], > 100 µM (inactive). Moreover, the GI50 in test [14] is > 100 µM (inactive); in [15] it was > 100 µM (inactive); in [16], > 100 µM (inactive); in [17] it was 47.9 µM (inactive); in [18], 48.4 µM (inactive).

Take `Fc1ccccc1C1SCc2nc3cc4ccccc4cc3n21` (stereo not given): the GI50 in test [1] was 64.9 µM (inactive); in test [2], 75.5 µM (inactive); in [3], 13.2 µM (inactive); in test [19] it was 32.5 µM (inactive); in test [4] it was > 100 µM (inactive); in [5] it was > 100 µM (inactive). Further, the GI50 in test [6] is 22.7 µM (inactive); in test [20], 72.6 µM (inactive); in [7] it was 13.2 µM (inactive); in test [8], 71.1 µM (inactive); in test [10], 26.5 µM (inactive); in [11] it was 49.1 µM (inactive). Moreover, the GI50 in test [12] is 54.3 µM (inactive); in test [13] it was > 100 µM (inactive); in test [14] it was > 100 µM (inactive); in test [15], 63.8 µM (inactive); in test [16], > 100 µM (inactive); in [17] it was > 100 µM (inactive). Further, the GI50 in test [18] is 43.9 µM (inactive).

Consider `Cc1cc(NC2=NCCO2)c2c(c1C)CCCC2`, for which the GI50 is 29.6 µM (inactive) in [1]; 1.27 µM (inactive) in test [2]; 24 µM (inactive) in test [3]; 11.2 µM (inactive) in test [19]; 11.6 µM (inactive) in [4]; 17.1 µM (inactive) in test [5]. For the same compound, the GI50 is 14.8 µM (inactive) in test [6]; 15.2 µM (inactive) in [20]; 10.6 µM (inactive) in test [7]; 15.7 µM (inactive) in test [8]; 11.7 µM (inactive) in test [10]; 18.1 µM (inactive) in test [11]. Also, the GI50 in [12] was 15.4 µM (inactive); in test [13] it was 17.4 µM (inactive); in [14] it was 14.4 µM (inactive); in test [15], 33.7 µM (inactive); in test [16], 1.91 µM (inactive); in test [17] it was 19 µM (inactive). Further, the GI50 in [18] is 13.9 µM (inactive).

Take `[N-]=[N+]=NCc1nc(N)c2c3c(sc2n1)CCCC3`: the GI50 in test [1] was 3.27 µM (inactive); in test [2], 2.14 µM (inactive); in test [3], 6.17 µM (inactive); in test [19], 4.97 µM (inactive); in [4] it was 1.55 µM (inactive); in test [5] it was 3.64 µM (inactive). Moreover, the GI50 in test [6] is 2.19 µM (inactive); in [20], 1.84 µM (inactive); in test [8] it was 1.36 µM (inactive); in [9], 0.272 µM (active); in [10] it was 3.43 µM (inactive); in test [11], 1.99 µM (inactive). The GI50 in [12] was 7.16 µM (inactive); in test [13], 3.29 µM (inactive); in test [14], 4.25 µM (inactive); in test [15], 12.4 µM (inactive); in test [16], 0.0532 µM (active); in [18], 1.55 µM (inactive).

Turning to `COc1cc(/C=C2\CCC(C)C3=C2N=c2s/c(=C/c4ccc(Cl)cc4)c(=O)n2C3c2cc(OC)c(OC)c(OC)c2)cc(OC)c1OC` (stereo not given), the GI50 in test [1], in test [3], in test [19], in test [5], in test [6] and in [7] was > 100 µM (inactive) throughout. The GI50 in [8], in test [9], in test [12], in [13], in [14] and in [15] was > 100 µM (inactive) each time. Further, the GI50 in test [16], in [17] and in test [18] was > 100 µM (inactive) throughout.

`CC(C)C1=CC23CCC4C(C)(C(=O)O)CCCC4(C)C2CC1C1C(=O)N(c2ccc(Cc4ccc(N5C(=O)C6C7CC8C9(C)CCCC(C)(C(=O)O)C9CCC8(C=C7C(C)C)C6C5=O)cc4)cc2)C(=O)C13` (stereo not given): the GI50 in [1] is 3.72 µM (inactive); in [2], 13.6 µM (inactive); in [3], 15.7 µM (inactive); in [19], 5.85 µM (inactive); in [4], 16.7 µM (inactive); in [5], 20.8 µM (inactive). Also, the GI50 in test [6] was 5.13 µM (inactive); in test [20] it was 10.1 µM (inactive); in [7], 9.35 µM (inactive); in test [8] it was 12.4 µM (inactive); in test [12], 10.9 µM (inactive); in [13] it was 5.5 µM (inactive). For the same compound, the GI50 in [14] is 3.55 µM (inactive); in [15], 15.6 µM (inactive); in test [16], 17.1 µM (inactive); in test [17], 5.41 µM (inactive); in [18], 3.17 µM (inactive).

For `CCCCN=C(OC1C=CCCC1)SC` (stereo not given), the GI50 in test [1], in [2], in [3], in test [19], in [4] and in [5] was > 100 µM (inactive) each time. For the same compound, the GI50 in test [6] is > 100 µM (inactive); in test [20], > 100 µM (inactive); in test [7], > 100 µM (inactive); in test [8], > 100 µM (inactive); in test [10] it was > 10 µM (inactive); in test [11], > 100 µM (inactive). In addition, the GI50 in test [12], in test [13], in test [14], in test [15], in test [16] and in [17] was > 100 µM (inactive) in each case. The GI50 in test [18] was > 100 µM (inactive).
